According to paper PMC10777851, “SMT-738: a novel small-molecule inhibitor of bacterial lipoprotein transport targeting Enterobacteriaceae” (Antimicrobial Agents and Chemotherapy, 2023):

Key:
[1] = Pharmacokinetics after IV bolus in mice; format: in vivo, male CD-1 mice; details: 20-mg/kg bolus IV
Protocol: Male CD-1 mice (from Charles River, Margate UK) were administered 20 mg/kg of SMT-738 via IV bolus route. At selected timepoints, blood, kidney tissue, lung tissue, and urine were collected and progressed for further analysis. The PK parameters included initial concentration (C 0) via extrapolation, clearance (CL), volume of distribution (V ss), and AUC0-t in plasma were determined using non-compartmental analysis. Tissue partitioning values were determined with ratio of AUC0-t,kidney/AUC0-t,plasma for kidney (K p,kidney) and ratio of AUC0-t,lung/AUC0-t,plasma for lung (K p,lung). The mean recovery (%) of SMT-738 unchanged in urine was determined by amount in urine compared to the intravenously administered dose. The study was conducted by Evotec Ltd (UK).

[2] = tested on: K. pneumoniae NCTC 13438; assay: Time-kill experiment, K. pneumoniae; format: cell-based, Klebsiella pneumoniae; details: 2× and 4× the MIC
Protocol: An overnight culture of the test strain was diluted to a viable cell density of ~10^6 CFU/mL and dispensed into 96-well plates containing dilutions of SMT-738 to yield the specified multiple of the MIC. Plates were sealed with a breathable seal and incubated under shaking conditions in a humid incubator at 37°C. At specific timepoints (t = 0, 1, 2, 4, 6, 8, and 24 h), samples were taken and plated onto MH agar plates, and colonies enumerated after overnight growth at 37°C. Viable cell numbers as log10 (CFU/mL) were then plotted against time. Where no colonies were detected, the limit of detection was 100 CFU/mL. Compound activity was scored as bactericidal if the viable cell count decreased by at least 3 log10 from the initial count.

[3] = tested on: HepG2 cells; assay: Seahorse mitochondrial functional assay; format: cell-based; details: top concentration of 500 µM (= 196.85 µg/mL)
Protocol: The Seahorse mitochondrial functional assay was performed by Cyprotex, UK. HepG2 cells were dosed with test compound, and in real time, the extracellular oxygen levels and pH were measured using the Xfe96 flux analyzer (Seahorse Biosciences). Simultaneously, oxygen consumption rate and extracellular acidification rate were measured to determine its effect on oxidative phosphorylation.

[4] = tested on: UPEC (E. coli NCTC 13441); assay: Frequency of resistance determination, E. coli; format: cell-based, Escherichia coli; details: for FoR Range: experiments with colonies observed
Protocol: (§1) The FoR of bacterial strains to test compounds was determined by plating aliquots of overnight cultures onto MH-agar plates containing dilutions of the test compound at various multiples of reference MIC as previously determined. Total viable counts of the overnight cultures were determined by spotting 10–20 µL of decimal dilutions in 1× phosphate-buffered saline (PBS) onto non-selective agar. Assay plates were incubated for up to 48 h with colonies being enumerated every 24 h. FoR was determined by dividing the number of colonies observed by the total number of viable cells plated. Representative colonies were then picked and streaked onto selective agar to confirm resistance and obtain resistant isolates. Isolates growing on selective agar were then used to initiate overnight cultures, bacteria pelleted by centrifugation, supernatant removed, and pellets stored at −80°C for subsequent DNA extraction and whole-genome sequencing. Genomic DNA was extracted using the DNeasy Blood and Tissue Kit (Qiagen), quantified using the Quant-iT TM PicoGreen TM dsDNA Assay Kit (Thermo Fisher Scientific), and normalized to 0.2 ng/µL in nuclease-free water. Library preparation and barcode addition were with the Nextera XT DNA Library Prep Kit (Illumina). KAPA Pure beads (Roche) were used for DNA purification. Samples were pooled to achieve 100× coverage of each sample and run on an Illumina Nextseq 500/550 Mid Output Kit v2.5 (150 cycles) (Illumina).

[5] = tested on: HepG2; assay: Cytotoxicity (CellTiter-Glo), HepG2; format: cell-based; details: HepG2, 24 h
Protocol: HepG2 (ATCC, HB-8065) and HEK293 (ATCC, CRL-1573) were sourced from ATCC. For the cytotoxicity assay, cells were seeded onto 96-well plates, which were then incubated for 24 h in a 5% CO2 incubator at 37°C. On the day of the assay, 10-point, twofold serial dilutions of test compound were prepared in assay media (MEM + 10% FBS) in separate 96-well plates. Assay plates were removed from the incubator, and the media from all of the wells were removed, taking care not to disturb the cell layer. Compound-containing assay media or control media were added to the relevant wells. Assay plates were returned to the 5% CO2 incubator at 37°C for 24 h. CellTiter-Glo reagent (Promega, G7570) was used to determine the viability of the cells.

[6] = tested on: KPM (K. pneumoniae NCTC 13438) LolC and LolE mutants; assay: MIC fold change of resistant LolC/LolE mutants, KPM; format: cell-based, Klebsiella pneumoniae
Protocol: (§2) MIC tests were performed by broth microdilution in-line with CLSI susceptibility testing standards ([20], [21]) either in-house or at IHMA (Europe and USA) or JMI Laboratories using cation-adjusted Mueller Hinton Broth.
as §1

[7] = tested on: E. coli BAA 2469 (NDM-1 positive); assay: Murine bloodstream infection model; format: in vivo, male CD-1 mice; details: 60-min IV infusion, readout 9 h, below the limit of detection
Protocol: Male JVC-cannulated CD-1 mice were infected intraperitoneally with E. coli BAA2469. At t = 1 h and t = 6 h, SMT-738 was intravenously infused over 60 min (BID). The mice from the pre-treatment group were euthanized at 1 h post-infection. All remaining mice were euthanized at 9 h post-infection, and blood samples were collected via cardiac puncture. Blood samples were serially diluted in PBS and plated onto cystine-lactose-electrolyte-deficient (CLED) agar. The viable bacterial burden for each sample was determined following overnight incubation at 37°C. A Kruskal-Wallis statistical test was performed.

[8] = tested on: anaerobic gut commensals such as Actinomyces sp., Bacteroides sp., Clostridioides sp., Bifidobacterium sp., Peptostreptococcus sp., and Veillonella sp.; assay: MIC, panel of 100 bacterial species: anaerobic gut commensals; format: cell-based
Protocol: as §2

[9] = tested on: human lymphoblastoid TK6 cells; assay: GreenScreen genotoxicity assay; format: cell-based; details: top concentration of 500 µM (= 196.85 µg/mL)
Protocol: The standard GreenScreen genotoxcity assay was performed by Cyprotex, UK. The assay uses two strains of human lymphoblastoid TK6 cells, the test strain (GenM-[…]), and the non-fluorescent control strain (GenM-C01). Incorporated in the test strain is a patented green fluorescent protein (GFP) reporter system that exploits the proper regulation of the GADD45a gene, which mediates the adaptive response to genotoxic stress.

For Cc1cnccc1-c1[nH]c(N)nc1-c1ccc2c(c1)N(C(=O)C(C)(C)N)CCO2 [SMT-738], the “Kp,kidney” value ([1]; AUC0-t,kidney/AUC0-t,plasma) was 44.8, the “Kp,lung” value ([1]; AUC0-t,lung/AUC0-t,plasma) was 8.1 and the “eliminated unchanged into the urine” value ([1]; over a 24-h period) was “approximately 29.5%”. For the same molecule, the CL ([1]; plasma) was 59 mL/min/kg, the Vss ([1]; plasma) was 4.3 L/kg and the C0 ([1]; plasma, via extrapolation) was 18,386 ng/mL. For the same molecule, the “bacterial burden following 24-h exposure” value [2] was “below the limit of detection”, the “timepoint at which bactericidal activity was observed” value [2] was 4 h and the mitotoxicity [3] was “No toxicity was observed”. The “FoR Range” value ([4]; 4× MICref, 48 h) was 1.52E-09, the “FoR Range” value ([4]; 8× MICref, 24 h) was 7.20E-10 and the “Frequency of resistance (FoR)” value ([4]; single-step selection at 4× and 8× the MIC, after 24 and 48 h) was ≤ 10^−9. For the same molecule, the IC50 [5] was > 200 µM, the “cytotoxicity IC50” value [5] was > 78.74 µg/mL and the “MIC fold change increase” value ([6]; LolC E198K mutant) was “E198K (64×)”. For the same molecule, the “MIC fold change increase” value ([6]; LolE L60P mutant) was “L60P (16×)”, the “MIC fold change increase” value ([6]; LolE M261R mutant) was “M261R (>64×)” and the “efficacy in the blood” value ([7]; 10 mg/kg BID) was “almost as efficacious as the 20 mg/kg BID dose”. The “reduction of bacterial burden compared to pre-treatment” value ([7]; blood, 20 mg/kg BID) was 4 log10, the MIC [8] was > 128 µg/mL and the genotoxicity [9] was “No toxicity was observed”.
